Drawing on PMC6348771 (Redox Biology, 2018), this text covers IC50 for one molecule.

The assay deals with T1, glutathione reductase (GR) (Saccharomyces cerevisiae, UniProt P41921).
T1 sequence (P41921 1-483): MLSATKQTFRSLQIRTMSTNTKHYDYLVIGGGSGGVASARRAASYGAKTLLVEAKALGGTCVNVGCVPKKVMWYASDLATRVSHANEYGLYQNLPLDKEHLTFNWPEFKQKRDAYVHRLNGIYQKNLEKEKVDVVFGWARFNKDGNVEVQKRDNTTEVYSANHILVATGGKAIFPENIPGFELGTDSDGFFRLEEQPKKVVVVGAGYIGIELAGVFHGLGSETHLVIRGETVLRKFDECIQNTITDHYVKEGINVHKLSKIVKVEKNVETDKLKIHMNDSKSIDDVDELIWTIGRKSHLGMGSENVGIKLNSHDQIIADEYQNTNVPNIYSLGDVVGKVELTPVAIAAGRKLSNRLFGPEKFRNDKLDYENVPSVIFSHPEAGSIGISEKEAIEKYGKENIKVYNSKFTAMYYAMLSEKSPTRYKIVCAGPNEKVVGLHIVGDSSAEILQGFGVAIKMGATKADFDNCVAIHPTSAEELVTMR
As to the kind of experiment: enzyme activity assay versus GSH concentration. Format: biochemical.

With `N[C@@H](CCC(=O)N[C@@H](CS)C(=O)NCC(=O)O)C(=O)O` [GSH, Glutathione], the IC50 is ~10 mM.
